Data: patent US20240158348A1, “HERBICIDAL CYCLIC AMIDES N-SUBSTITUTED WITH A HALOALKYLSULFONYLANILIDE GROUP” (FMC Corporation, priority 2021, published 2024)

Assays:
Type in all cases: in vivo
corn (Zea mays) [1] = assay: Test C preemergence, corn; settings: 0 is no effect, 100 is complete control
Excerpt: (§1) Seeds of plant species selected from blackgrass (Alopecurus myosuroides), corn (Zea mays), foxtail, giant (giant foxtail, Setaria faberi), goosegrass (Eleusine indica), kochia (Bassia scoparia), oat, wild (wild oat, Avena fatua), pigweed, palmer (palmer amaranth, Amaranthus palmeri), ragweed (common ragweed, Ambrosia artemisiifolia), ryegrass, Italian (Italian ryegrass, Lolium multiflorum), soybean (Glycine max) and wheat (Triticum aestivum) were planted into a blend of loam soil and sand and treated preemergence with a directed soil spray using test chemicals formulated in a non-phytotoxic solvent mixture which included a surfactant.
(§2) At the same time, plants selected from these crop and weed species and also galium (catchweed bedstraw, Galium aparine) and horseweed (Erigeron canadensis) were planted in pots containing the same blend of loam soil and sand and treated with postemergence applications of test chemicals formulated in the same manner. Plants ranged in height from 2 to 10 cm and were in the one- to two-leaf stage for the postemergence treatment. Treated plants and untreated controls were maintained in a greenhouse for 10 or 12 days, after which time all treated plants were compared to untreated controls and visually evaluated for injury. Plant response ratings, summarized in Table A, are based on a 0 to 100 scale where 0 is no effect and 100 is complete control. A dash (-) response means no test result.

[2] = test system: foxtail, giant (giant foxtail, Setaria faberi); assay: Test C preemergence, giant foxtail; settings: 0 is no effect, 100 is complete control
Excerpt: as §1, §2

[3] = test system: goosegrass (Eleusine indica); assay: Test C preemergence, goosegrass; settings: 0 is no effect, 100 is complete control
Excerpt: as §1, §2

kochia (Bassia scoparia) [4] = assay: Test C preemergence, kochia; settings: 0 is no effect, 100 is complete control
Excerpt: as §1, §2

[5] = test system: oat, wild (wild oat, Avena fatua); assay: Test C preemergence, wild oat; settings: 0 is no effect, 100 is complete control
Excerpt: as §1, §2

[6] = test system: pigweed, palmer (palmer amaranth, Amaranthus palmeri); assay: Test C preemergence, palmer amaranth; settings: 0 is no effect, 100 is complete control
Excerpt: as §1, §2

[7] = test system: ragweed (common ragweed, Ambrosia artemisiifolia); assay: Test C preemergence, ragweed; settings: 0 is no effect, 100 is complete control
Excerpt: as §1, §2

[8] = test system: ryegrass, Italian (Italian ryegrass, Lolium multiflorum); assay: Test C preemergence, Italian ryegrass; settings: 0 is no effect, 100 is complete control
Excerpt: as §1, §2

soybean (Glycine max) [9] = assay: Test C preemergence, soybean; settings: 0 is no effect, 100 is complete control
Excerpt: as §1, §2

[10] = test system: wheat (Triticum aestivum); assay: Test C preemergence, wheat; settings: 0 is no effect, 100 is complete control
Excerpt: as §1, §2

[11] = test system: blackgrass (Alopecurus myosuroides); assay: Test C postemergence, blackgrass; settings: visual injury, 0 to 100 scale (0 no effect, 100 complete control)
Excerpt: as §1, §2

corn (Zea mays) [12] = assay: Test C postemergence, corn; settings: visual injury, 0 to 100 scale (0 no effect, 100 complete control)
Excerpt: as §1, §2

[13] = test system: foxtail, giant (giant foxtail, Setaria faberi); assay: Test C postemergence, giant foxtail; settings: visual injury, 0 to 100 scale (0 no effect, 100 complete control)
Excerpt: as §1, §2

[14] = test system: goosegrass (Eleusine indica); assay: Test C postemergence, goosegrass; settings: visual injury, 0 to 100 scale (0 no effect, 100 complete control)
Excerpt: as §1, §2

kochia (Bassia scoparia) [15] = assay: Test C postemergence, kochia; settings: visual injury, 0 to 100 scale (0 no effect, 100 complete control)
Excerpt: as §1, §2

[16] = test system: oat, wild (wild oat, Avena fatua); assay: Test C postemergence, wild oat; settings: visual injury, 0 to 100 scale (0 no effect, 100 complete control)
Excerpt: as §1, §2

[17] = test system: pigweed, palmer (palmer amaranth, Amaranthus palmeri); assay: Test C postemergence, palmer amaranth; settings: visual injury, 0 to 100 scale (0 no effect, 100 complete control)
Excerpt: as §1, §2

[18] = test system: ragweed (common ragweed, Ambrosia artemisiifolia); assay: Test C postemergence, ragweed; settings: visual injury, 0 to 100 scale (0 no effect, 100 complete control)
Excerpt: as §1, §2

[19] = test system: ryegrass, Italian (Italian ryegrass, Lolium multiflorum); assay: Test C postemergence, Italian ryegrass; settings: visual injury, 0 to 100 scale (0 no effect, 100 complete control)
Excerpt: as §1, §2

soybean (Glycine max) [20] = assay: Test C postemergence, soybean; settings: visual injury, 0 to 100 scale (0 no effect, 100 complete control)
Excerpt: as §1, §2

[21] = test system: wheat (Triticum aestivum); assay: Test C postemergence, wheat; settings: visual injury, 0 to 100 scale (0 no effect, 100 complete control)
Excerpt: as §1, §2

[22] = test system: galium (catchweed bedstraw, Galium aparine); assay: Test C postemergence, galium; settings: visual injury, 0 to 100 scale (0 no effect, 100 complete control)
Excerpt: as §1, §2

[23] = test system: barnyardgrass (Echinochloa crusgalli); assay: Test D flooded paddy test, barnyardgrass; design: key: 0 = no effect, 100 = complete control; settings: 250 g ai/ha, Flood; applied to paddy water at 2-leaf stage; visual rating after 13 days; scale 0 (no effect) to 100 (complete control)
Description: (§3) Plant species in the flooded paddy test selected from barnyardgrass (Echinochloa crusgalli), ducksalad (Heteranthera limosa), rice (Oryza sativa), and sedge, umbrella (small-flower umbrella sedge, Cyperus difformis) were grown to the 2-leaf stage for testing. At time of treatment, test pots were flooded to 3 cm above the soil surface, treated by application of test compounds directly to the paddy water, and then maintained at that water depth for the duration of the test. Treated plants and controls were maintained in a greenhouse for 13 days, after which time all species were compared to controls and visually evaluated. Plant response ratings, summarized in Table B, are based on a scale of 0 to 100 where 0 is no effect and 100 is complete control. A dash (-) response means no test result.

[24] = test system: ducksalad (Heteranthera limosa); assay: Test D flooded paddy test, ducksalad; design: key: 0 = no effect, 100 = complete control; settings: 250 g ai/ha, Flood; applied to paddy water at 2-leaf stage; visual rating after 13 days; scale 0 (no effect) to 100 (complete control)
Description: as §3

rice (Oryza sativa) = assay: Test D flooded paddy test, rice; design: key: 0 = no effect, 100 = complete control; settings: 250 g ai/ha, Flood; applied to paddy water at 2-leaf stage; visual rating after 13 days; scale 0 (no effect) to 100 (complete control)
Description: as §3

[25] = test system: sedge, umbrella (small-flower umbrella sedge, Cyperus difformis); assay: Test D flooded paddy test, umbrella sedge; design: key: 0 = no effect, 100 = complete control; settings: 250 g ai/ha, Flood; applied to paddy water at 2-leaf stage; visual rating after 13 days; scale 0 (no effect) to 100 (complete control)
Description: as §3

Cc1c(N2CCC(OC3CC3)C2=O)cc(N(C(=O)OCC(C)C)S(=O)(=O)C(F)(F)F)c(C)c1C (stereo not drawn) [Compound 50] was tested, and the “Plant response rating (0 to 100 scale), Corn” value (corn (Zea mays) [1]; 31 g ai/ha Preemergence) was 10, the “Plant response rating (0 to 100 scale), Corn” value (corn (Zea mays) [1]; 125 g ai/ha Preemergence) was 90 and the “Plant response rating (0 to 100 scale), Foxtail, Giant” value ([2]; 31 g ai/ha Preemergence) was 50. The “Plant response rating (0 to 100 scale), Foxtail, Giant” value ([2]; 125 g ai/ha Preemergence) was 100, the “Plant response rating (0 to 100 scale), Goosegrass” value ([3]; 31 g ai/ha Preemergence) was 90 and the “Plant response rating (0 to 100 scale), Goosegrass” value ([3]; 125 g ai/ha Preemergence) was 100. For the same molecule, the “Plant response rating (0 to 100 scale), Kochia” value (kochia (Bassia scoparia) [4]; 31 g ai/ha Preemergence) was 20, the “Plant response rating (0 to 100 scale), Kochia” value (kochia (Bassia scoparia) [4]; 125 g ai/ha Preemergence) was 100 and the “Plant response rating (0 to 100 scale), Oat, Wild” value ([5]; 31 g ai/ha Preemergence) was 70. For the same molecule, the “Plant response rating (0 to 100 scale), Oat, Wild” value ([5]; 125 g ai/ha Preemergence) was 80, the “Plant response rating (0 to 100 scale), Pigweed, Palmer” value ([6]; 31 g ai/ha Preemergence) was 90 and the “Plant response rating (0 to 100 scale), Pigweed, Palmer” value ([6]; 125 g ai/ha Preemergence) was 100. The “Plant response rating (0 to 100 scale), Ragweed” value ([7]; 31 g ai/ha Preemergence) was 30, the “Plant response rating (0 to 100 scale), Ragweed” value ([7]; 125 g ai/ha Preemergence) was 90 and the “Plant response rating (0 to 100 scale), Ryegrass, Italian” value ([8]; 31 g ai/ha Preemergence) was 50. The “Plant response rating (0 to 100 scale), Ryegrass, Italian” value ([8]; 125 g ai/ha Preemergence) was 100, the “Plant response rating (0 to 100 scale), Soybean” value (soybean (Glycine max) [9]; 31 g ai/ha Preemergence) was 30 and the “Plant response rating (0 to 100 scale), Soybean” value (soybean (Glycine max) [9]; 125 g ai/ha Preemergence) was 60. The “Plant response rating (0 to 100 scale), Wheat” value ([10]; 31 g ai/ha Preemergence) was 30, the “Plant response rating (0 to 100 scale), Wheat” value ([10]; 125 g ai/ha Preemergence) was 100 and the “Blackgrass plant response rating” value ([11]; 31 g ai/ha Postemergence) was 10. For the same molecule, the “Blackgrass plant response rating” value ([11]; 125 g ai/ha Postemergence) was 40, the “Corn plant response rating” value (corn (Zea mays) [12]; 31 g ai/ha Postemergence) was 30 and the “Corn plant response rating” value (corn (Zea mays) [12]; 125 g ai/ha Postemergence) was 90. The “Foxtail, Giant plant response rating” value ([13]; 31 g ai/ha Postemergence) was 50, the “Foxtail, Giant plant response rating” value ([13]; 125 g ai/ha Postemergence) was 80 and the “Goosegrass plant response rating” value ([14]; 31 g ai/ha Postemergence) was 20. For the same molecule, the “Goosegrass plant response rating” value ([14]; 125 g ai/ha Postemergence) was 80, the “Kochia plant response rating” value (kochia (Bassia scoparia) [15]; 31 g ai/ha Postemergence) was 20 and the “Kochia plant response rating” value (kochia (Bassia scoparia) [15]; 125 g ai/ha Postemergence) was 70. For the same molecule, the “Oat, Wild plant response rating” value ([16]; 31 g ai/ha Postemergence) was 20, the “Oat, Wild plant response rating” value ([16]; 125 g ai/ha Postemergence) was 50 and the “Pigweed, Palmer plant response rating” value ([17]; 31 g ai/ha Postemergence) was 20. The “Pigweed, Palmer plant response rating” value ([17]; 125 g ai/ha Postemergence) was 60, the “Ragweed plant response rating” value ([18]; 31 g ai/ha Postemergence) was 70 and the “Ragweed plant response rating” value ([18]; 125 g ai/ha Postemergence) was 80. For the same molecule, the “Ryegrass, Italian plant response rating” value ([19]; 31 g ai/ha Postemergence) was 50, the “Ryegrass, Italian plant response rating” value ([19]; 125 g ai/ha Postemergence) was 90 and the “Soybean plant response rating” value (soybean (Glycine max) [20]; 31 g ai/ha Postemergence) was 60. The “Soybean plant response rating” value (soybean (Glycine max) [20]; 125 g ai/ha Postemergence) was 80, the “Wheat plant response rating” value ([21]; 31 g ai/ha Postemergence) was 60 and the “Wheat plant response rating” value ([21]; 125 g ai/ha Postemergence) was 80. The “Galium plant response rating” value ([22]; 31 g ai/ha Postemergence) was 60, the “Galium plant response rating” value ([22]; 125 g ai/ha Postemergence) was 100 and the “Plant response rating, Barnyardgrass” value [23] was 90. The “Plant response rating, Ducksalad” value [24] was 90, the “Plant response rating, Rice” value (rice (Oryza sativa)) was 20 and the “Plant response rating, Sedge, Umbrella” value [25] was 95.
